The values below are quoted from earlier work in patent US8927002B2, “Stent with a coating or a basic body containing a lithium salt and use of lithium salts for prevention of restenosis” (Biotronik VI Patent AG, priority 2008, dated 2015).

The test system of data set [1] is interleukins (IL-15; IL-8).
The test system of data set [2] is various prostate cancer cell lines. The note with it: cell culture; by reducing gene expression in the S-phase of the cell cycle.

As for `[Cl-].[Li+]` [lithium chloride], the “secretion of certain interleukins (IL-15; IL-8)” value in data set [1] was “increased secretion”. The “proliferation of various prostate cancer cell lines” value in data set [2] was “significantly suppresses the proliferation”.
